The numbers were not newly measured in patent US20240016859A1, “MICROENCAPSULATED AND CHROMOSOME INTEGRATED COMPOSITIONS FOR L-DOPA MICROBIOME THERAPY” (Iowa State University Research Foundation, Inc., priority 2020, published 2024), which cites them from elsewhere.

With `N[C@@H](Cc1ccc(O)c(O)c1)C(=O)O` [Levodopa, (−)-L-a-amino-b-(3,4-dihydroxybenzene)propanoic acid], the solubility in water entry is recorded as “slightly soluble”.
